Measurements from US10780090B2, “Heteroaryl compounds useful as inhibitors of SUMO activating enzyme” (Millennium Pharmaceuticals, Inc., priority 2014, dated 2020).

Target: recombinant human SAE enzyme (Homo sapiens (Human), UniProt Q9UBT2)
Experiment: SAE HTRF enzyme assay
Format: biochemical
Settings: for Percent Inhibition: SAE inhibition at compound concentration 0.111 μM; for IC50: SAE inhibition, class symbols, legend in nM
How it was run: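 HTRF read-out using Eu-cryptate anti-Flag and allophycocyanin anti-GST antibodies, added with EDTA stop buffer and read after 2 h at 24 °C. The preceding reaction ran 105 min at 24 °C: 0.11 nM recombinant SAE, 0.5 μM ATP, Sumo-Flag, Ubc9-GST, pH 7.5. Values given as single-concentration inhibition or IC50.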

Chain of recombinant human SAE enzyme (Q9UBT2 whole entry): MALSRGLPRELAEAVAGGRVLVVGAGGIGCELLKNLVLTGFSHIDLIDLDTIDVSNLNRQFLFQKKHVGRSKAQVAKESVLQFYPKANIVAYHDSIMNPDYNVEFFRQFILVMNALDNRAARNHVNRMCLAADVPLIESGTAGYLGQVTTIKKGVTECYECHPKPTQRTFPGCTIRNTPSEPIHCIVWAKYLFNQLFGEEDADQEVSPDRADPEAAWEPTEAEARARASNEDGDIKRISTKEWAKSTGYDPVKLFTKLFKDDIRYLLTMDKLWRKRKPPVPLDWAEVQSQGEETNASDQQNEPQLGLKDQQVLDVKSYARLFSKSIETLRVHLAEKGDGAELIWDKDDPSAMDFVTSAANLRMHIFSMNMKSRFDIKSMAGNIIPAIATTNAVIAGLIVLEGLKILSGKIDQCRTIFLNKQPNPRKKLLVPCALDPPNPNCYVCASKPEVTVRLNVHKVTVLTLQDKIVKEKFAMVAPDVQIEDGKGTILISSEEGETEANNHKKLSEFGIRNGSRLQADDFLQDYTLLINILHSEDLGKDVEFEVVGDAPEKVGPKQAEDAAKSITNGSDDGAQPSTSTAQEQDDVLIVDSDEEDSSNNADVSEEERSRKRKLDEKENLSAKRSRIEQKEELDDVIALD
Chain of recombinant human SAE enzyme (Q9UBE0 whole entry partner): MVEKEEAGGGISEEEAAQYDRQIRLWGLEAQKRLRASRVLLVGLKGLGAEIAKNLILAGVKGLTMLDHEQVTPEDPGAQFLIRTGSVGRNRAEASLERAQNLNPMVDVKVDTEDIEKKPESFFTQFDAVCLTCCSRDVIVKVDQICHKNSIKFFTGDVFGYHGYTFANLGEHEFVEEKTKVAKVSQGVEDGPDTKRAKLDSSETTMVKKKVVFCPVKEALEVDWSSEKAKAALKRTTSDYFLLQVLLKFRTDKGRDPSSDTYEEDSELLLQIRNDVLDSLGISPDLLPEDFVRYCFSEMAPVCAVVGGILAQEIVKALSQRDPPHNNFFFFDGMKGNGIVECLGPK

| SMILES | Percent Inhibition [%] | IC50 [nM] |
| --- | --- | --- |
| NS(=O)(=O)OC[C@H]1C[C@@H](Nc2ncncc2C(=O)c2cc([C@@H]3OCC(F)(F)c4ccc(Cl)cc43)cs2)C[C@@H]1O (single isomer, unassigned) [I-289b, [(1R,2S,4R)-4-{[5-({4-[(1R)-7-chloro-4,4-difluoro-3,4-dihydro-1H-isochromen-1-yl]-2-thienyl}carbonyl)pyrimidin-4-yl]amino}-2-hydroxycyclopentyl]methyl sulfamate or [(1R,2S,4R)-4-{[5-({4-[(1S)-7-chloro-4,4-difluoro-3,4-dihydro-1H-isochromen-1-yl]-2-thienyl}carbonyl)pyrimidin-4-yl]amino}-2-hydroxycyclopentyl]methyl sulfamate] | 99 | < 10 |
| NS(=O)(=O)OC[C@H]1C[C@@H](Nc2ncncc2C(=O)c2cc([C@@H]3OCCc4cc(F)c(F)cc43)c(Cl)s2)C[C@@H]1O (single isomer, unassigned) [I-290a, [(1R,2S,4R)-4-{[5-({5-chloro-4-[(1R)-6,7-difluoro-3,4-dihydro-1H-isochromen-1-yl]-2-thienyl}carbonyl)pyrimidin-4-yl]amino}-2-hydroxycyclopentyl]methyl sulfamate or [(1R,2S,4R)-4-{[5-({5-chloro-4-[(1S)-6,7-difluoro-3,4-dihydro-1H-isochromen-1-yl]-2-thienyl}carbonyl)pyrimidin-4-yl]amino}-2-hydroxycyclopentyl]methyl sulfamate] | 62 | 10 to 100 |
| NS(=O)(=O)OC[C@H]1C[C@@H](Nc2ncncc2C(=O)c2cc([C@@H]3OCCc4cc(F)c(F)cc43)c(Cl)s2)C[C@@H]1O (single isomer, unassigned) [I-290b, [(1R,2S,4R)-4-{[5-({5-chloro-4-[(1R)-6,7-difluoro-3,4-dihydro-1H-isochromen-1-yl]-2-thienyl}carbonyl)pyrimidin-4-yl]amino}-2-hydroxycyclopentyl]methyl sulfamate or [(1R,2S,4R)-4-{[5-({5-chloro-4-[(1S)-6,7-difluoro-3,4-dihydro-1H-isochromen-1-yl]-2-thienyl}carbonyl)pyrimidin-4-yl]amino}-2-hydroxycyclopentyl]methyl sulfamate] | 97 | < 10 |
| Cc1ccc2c(n1)C(c1cc(C(=O)c3cncnc3N[C@@H]3C[C@H](COS(N)(=O)=O)[C@@H](O)C3)sc1C)OCC2 (single isomer, unassigned) [I-291a, [(1R,2S,4R)-2-hydroxy-4-{[5-({5-methyl-4-[(8S)-2-methyl-5,8-dihydro-6H-pyrano[3,4-b]pyridin-8-yl]-2-thienyl}carbonyl)pyrimidin-4-yl]amino}cyclopentyl]methyl sulfamate or [(1R,2S,4R)-2-hydroxy-4-{[5-({5-methyl-4-[(8R)-2-methyl-5,8-dihydro-6H-pyrano[3,4-b]pyridin-8-yl]-2-thienyl}carbonyl)pyrimidin-4-yl]amino}cyclopentyl]methyl sulfamate] | 17 | 100 to 1000 |
| Cc1ccc2c(n1)C(c1cc(C(=O)c3cncnc3N[C@@H]3C[C@H](COS(N)(=O)=O)[C@@H](O)C3)sc1C)OCC2 (single isomer, unassigned) [I-291b, [(1R,2S,4R)-2-hydroxy-4-{[5-({5-methyl-4-[(8S)-2-methyl-5,8-dihydro-6H-pyrano[3,4-b]pyridin-8-yl]-2-thienyl}carbonyl)pyrimidin-4-yl]amino}cyclopentyl]methyl sulfamate or [(1R,2S,4R)-2-hydroxy-4-{[5-({5-methyl-4-[(8R)-2-methyl-5,8-dihydro-6H-pyrano[3,4-b]pyridin-8-yl]-2-thienyl}carbonyl)pyrimidin-4-yl]amino}cyclopentyl]methyl sulfamate] | 99 | < 10 |
| Cc1sc(C(=O)c2cncnc2N[C@@H]2C[C@H](COS(N)(=O)=O)[C@@H](O)C2)cc1[C@H]1NCCc2ccccc21 (single isomer, unassigned) [I-292a, [(1R,2S,4R)-2-hydroxy-4-{[5-({5-methyl-4-[(1S)-1,2,3,4-tetrahydroisoquinolin-1-yl]-2-thienyl}carbonyl)pyrimidin-4-yl]amino}cyclopentyl]methyl sulfamate or [(1R,2S,4R)-2-hydroxy-4-{[5-({5-methyl-4-[(1R)-1,2,3,4-tetrahydroisoquinolin-1-yl]-2-thienyl}carbonyl)pyrimidin-4-yl]amino}cyclopentyl]methyl sulfamate] | 99 | < 10 |
| Cc1sc(C(=O)c2cncnc2N[C@@H]2C[C@H](COS(N)(=O)=O)[C@@H](O)C2)cc1[C@H]1NCCc2ccccc21 (single isomer, unassigned) [I-292b, [(1R,2S,4R)-2-hydroxy-4-{[5-({5-methyl-4-[(1S)-1,2,3,4-tetrahydroisoquinolin-1-yl]-2-thienyl}carbonyl)pyrimidin-4-yl]amino}cyclopentyl]methyl sulfamate or [(1R,2S,4R)-2-hydroxy-4-{[5-({5-methyl-4-[(1R)-1,2,3,4-tetrahydroisoquinolin-1-yl]-2-thienyl}carbonyl)pyrimidin-4-yl]amino}cyclopentyl]methyl sulfamate] | 87 | 10 to 100 |
| NS(=O)(=O)OC[C@H]1C[C@@H](Nc2ncncc2C(=O)c2cc([C@@H]3OCC(F)(F)c4ccccc43)cs2)C[C@@H]1O (single isomer, unassigned) [I-293a, [(1R,2S,4R)-4-{[5-({4-[(1R)-4,4-difluoro-3,4-dihydro-1H-isochromen-1-yl]-2-thienyl}carbonyl)pyrimidin-4-yl]amino}-2-hydroxycyclopentyl]methyl sulfamate or [(1R,2S,4R)-4-{[5-({4-[(1S)-4,4-difluoro-3,4-dihydro-1H-isochromen-1-yl]-2-thienyl}carbonyl)pyrimidin-4-yl]amino}-2-hydroxycyclopentyl]methyl sulfamate] | 57 | 10 to 100 |
| NS(=O)(=O)OC[C@H]1C[C@@H](Nc2ncncc2C(=O)c2cc([C@@H]3OCC(F)(F)c4ccccc43)cs2)C[C@@H]1O (single isomer, unassigned) [I-293b, [(1R,2S,4R)-4-{[5-({4-[(1R)-4,4-difluoro-3,4-dihydro-1H-isochromen-1-yl]-2-thienyl}carbonyl)pyrimidin-4-yl]amino}-2-hydroxycyclopentyl]methyl sulfamate or [(1R,2S,4R)-4-{[5-({4-[(1S)-4,4-difluoro-3,4-dihydro-1H-isochromen-1-yl]-2-thienyl}carbonyl)pyrimidin-4-yl]amino}-2-hydroxycyclopentyl]methyl sulfamate] | 98 | < 10 |
| NS(=O)(=O)OC[C@H]1C[C@@H](Nc2ncncc2C(=O)c2cc([C@@H]3OCCc4ccc(F)cc43)c(Cl)s2)C[C@@H]1O (single isomer, unassigned) [I-294, [(1R,2S,4R)-4-[[5-[5-chloro-4-[(1R)-7-fluoroisochroman-1-yl]thiophene-2-carbonyl]pyrimidin-4-yl]amino]-2-hydroxy-cyclopentyl]methyl sulfamate or [(1R,2S,4R)-4-[[5-[5-chloro-4-[(1S)-7-fluoroisochroman-1-yl]thiophene-2-carbonyl]pyrimidin-4-yl]amino]-2-hydroxy-cyclopentyl]methyl sulfamate] | 99 | < 10 |
| NS(=O)(=O)OC[C@H]1C[C@@H](Nc2ncncc2C(=O)c2cc([C@@H]3OCCc4ccc(F)cc43)c(Cl)s2)C[C@@H]1O (single isomer, unassigned) [I-294a, [(1R,2S,4R)-4-{[5-({5-chloro-4-[(1R)-7-fluoro-3,4-dihydro-1H-isochromen-1-yl]-2-thienyl}carbonyl)pyrimidin-4-yl]amino}-2-hydroxycyclopentyl]methyl sulfamate or [(1R,2S,4R)-4-{[5-({5-chloro-4-[(1S)-7-fluoro-3,4-dihydro-1H-isochromen-1-yl]-2-thienyl}carbonyl)pyrimidin-4-yl]amino}-2-hydroxycyclopentyl]methyl sulfamate] | 84 | 10 to 100 |
| NS(=O)(=O)OC[C@H]1C[C@@H](Nc2ncncc2C(=O)c2cc([C@@H]3OCCc4ccc(F)cc43)c(Cl)s2)C[C@@H]1O (single isomer, unassigned) [I-294b, [(1R,2S,4R)-4-{[5-({5-chloro-4-[(1R)-7-fluoro-3,4-dihydro-1H-isochromen-1-yl]-2-thienyl}carbonyl)pyrimidin-4-yl]amino}-2-hydroxycyclopentyl]methyl sulfamate or [(1R,2S,4R)-4-{[5-({5-chloro-4-[(1S)-7-fluoro-3,4-dihydro-1H-isochromen-1-yl]-2-thienyl}carbonyl)pyrimidin-4-yl]amino}-2-hydroxycyclopentyl]methyl sulfamate] | 98 | < 10 |
| Cc1sc(C(=O)c2cncnc2N[C@@H]2C[C@H](COS(N)(=O)=O)[C@@H](O)C2)cc1C1OCCc2ccc(C(F)(F)F)nc21 (single isomer, unassigned) [I-297a, [(1R,2S,4R)-2-hydroxy-4-{[5-({5-methyl-4-[(8S)-2-(trifluoromethyl)-5,8-dihydro-6H-pyrano[3,4-b]pyridin-8-yl]-2-thienyl}carbonyl)pyrimidin-4-yl]amino}cyclopentyl]methyl sulfamate or [(1R,2S,4R)-2-hydroxy-4-{[5-({5-methyl-4-[(8R)-2-(trifluoromethyl)-5,8-dihydro-6H-pyrano[3,4-b]pyridin-8-yl]-2-thienyl}carbonyl)pyrimidin-4-yl]amino}cyclopentyl]methyl sulfamate] | 31 | 100 to 1000 |
